From patent publication US11040954B1, “CXCR3 receptor agonists” (RECEPTOS LLC, priority 2016, dated 2021)

Molecular target: T1, CXCR3 (Homo sapiens, UniProt P49682)
T1 construct: host or cells: CHO-K1 (cAMP Hunter CHOK1 CXCR3 Gi cell line)
T1 sequence (P49682 1-368): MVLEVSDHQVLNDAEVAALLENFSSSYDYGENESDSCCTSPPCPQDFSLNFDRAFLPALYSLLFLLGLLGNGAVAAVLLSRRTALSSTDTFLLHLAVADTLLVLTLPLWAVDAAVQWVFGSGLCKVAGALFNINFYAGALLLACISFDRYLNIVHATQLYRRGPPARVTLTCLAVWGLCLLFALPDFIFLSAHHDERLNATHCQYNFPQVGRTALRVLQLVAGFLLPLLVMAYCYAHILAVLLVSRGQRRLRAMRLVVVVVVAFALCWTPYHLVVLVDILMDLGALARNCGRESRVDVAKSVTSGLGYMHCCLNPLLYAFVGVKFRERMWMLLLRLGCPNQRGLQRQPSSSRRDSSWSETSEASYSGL
Experiment: CXCR3 cAMP agonist assay (cAMP Hunter CHOK1 CXCR3 Gi cell line, forskolin-stimulated, HitHunter cAMP detection)
Assay type: cell-based
Conditions: cAMP Hunter CHOK1 CXCR3 Gi cells, 20 μM forskolin, 30 minutes; read-out: Activity (CXCR3 cAMP agonist assay compound EC50)
Description: The cAMP Hunter™ CHOK1 CXCR3 Gi cell line was purchased from DiscoveRx. Cells were seeded into a 96-well white assay plate at 50,000 cells/well/94 μl assay buffer (Hank's Buffered Saline Solution, 10 mM HEPES, 0.1% fatty acid-free BSA, pH 7.4) and immediately assayed in suspension. Forskolin was added to 20 μM (5 μl of 400 μM stock) simultaneously with a 12-point dose response curve of compound at 0-10 μM (1 μl of 100× stock in 100% DMSO), and cells were incubated for 30 minutes. A cAMP standard curve is run as an assay control. A CXCL11 dose response was included to determine maximum efficacy. Direct detection of cAMP was carried out using the DiscoveRx HitHunter cAMP kit according to manufacturer's instructions, and luminescence was read using a SpectraMax M5 plate reader.

EC50 | SMILES
0.25 to 0.5 µM | NCC[C@H](NC(=O)[C@@H]1Cc2ccccc2CN1C(=O)CCC(=O)N1CCC[C@@H]1c1ccccc1)C(=O)Nc1ccc(Cl)c(Cl)c1F [Compound 12-148]
< 0.05 µM | Cc1cc(NC(=O)[C@H](CCN)NC(=O)[C@@H]2Cc3ccccc3CN2C(=O)CCC(=O)N2CCCC2C#N)ccc1Cl (some centres unmarked) [Compound 12-77]
< 0.05 µM | CC(C)CC1CCCCN1C(=O)CCC(=O)N1Cc2ccccc2C[C@H]1C(=O)N[C@@H](CCN)C(=O)Nc1ccc(Cl)c(Cl)c1F (some centres unmarked) [Compound 15-20]
< 0.05 µM | CC(C)C1CCN(C(=O)CCC(=O)N2Cc3ccccc3C[C@H]2C(=O)N[C@@H](CCN)C(=O)Nc2ccc(Cl)c(Cl)c2F)C1 (some centres unmarked) [Compound 15-9]
0.25 to 0.5 µM | O=C(CCC(=O)N1Cc2ccccc2C[C@H]1C(=O)N[C@@H](CCN1CCCC(F)(F)C1)C(=O)Nc1ccc2c(c1)CCC2)c1ccccc1 [Compound 23-8]
0.05 to 0.25 µM | CN(C(=O)CCC(=O)N1Cc2ccccc2C[C@H]1C(=O)NC1(C(=O)Nc2ccc(Cl)c(Cl)c2F)CCNCC1)C(C)(C)C [Compound 12-125]
0.25 to 0.5 µM | Cc1cc(NC(=O)[C@H](CCC2CCN(C(=O)OC(C)(C)C)CC2)NC(=O)[C@@H]2Cc3ccccc3CN2C(=O)CCC(=O)c2ccccc2)ccc1Cl [Compound 17-2]
> 0.5 µM | CS(=O)(=O)C1CCN(C(=O)CCC(=O)N2Cc3ccccc3C[C@H]2C(=O)N[C@@H](CCN)C(=O)Nc2ccc(Cl)c(Cl)c2F)CC1 [Compound 15-13]
0.05 to 0.25 µM | Cc1cc(NC(=O)[C@H](CCN)NC(=O)[C@@H]2Cc3ccccc3CN2C(=O)CCC(=O)N2CCN(C(C)(C)C)CC2)ccc1Cl [Compound 12-102]
0.05 to 0.25 µM | Cc1cc(NC(=O)[C@H](CCN)NC(=O)[C@@H]2Cc3ccccc3CN2C(=O)CCC(=O)N2CCN(CC#N)CC2)ccc1Cl [Compound 12-117]
< 0.05 µM | CC[C@H]1CCN(C(=O)CCC(=O)N2Cc3ccccc3C[C@H]2C(=O)N[C@@H](CCN)C(=O)Nc2ccc(Cl)c(C)c2)C1 [Compound 12-153]
0.05 to 0.25 µM | O=C(CCC(=O)N1Cc2ccccc2C[C@H]1C(=O)N[C@@H](CCN1CC(F)(F)C1)C(=O)Nc1ccc2c(c1)CCC2)c1ccccc1 [Compound 23-6]
< 0.05 µM | CC1(C)CCCCN1C(=O)CCC(=O)N1Cc2ccccc2C[C@H]1C(=O)NC1(C(=O)Nc2ccc(Cl)c(Cl)c2F)CCNCC1 [Compound 12-135]
> 0.5 µM | CN(C)CC1CCCCN1C(=O)CCC(=O)N1Cc2ccccc2C[C@H]1C(=O)N[C@@H](CCN)C(=O)Nc1ccc(Cl)c(Cl)c1F (some centres unmarked) [Compound 15-17]
0.25 to 0.5 µM | O=C(CCC(=O)N1Cc2ccccc2C[C@H]1C(=O)N[C@@H](CCN1CCC(F)(F)C1)C(=O)Nc1ccc2c(c1)CCC2)c1ccccc1 [Compound 23-7]
> 0.5 µM | Cc1cc(NC(=O)[C@H](CCN)NC(=O)[C@@H]2Cc3ccccc3CN2C(=O)CCC(=O)N2CCN(c3ccccc3)CC2)ccc1Cl [Compound 12-101]

EC50 | SMILES
< 0.05 µM | Cc1cc(NC(=O)[C@H](CCN)NC(=O)[C@@H]2Cc3ccccc3CN2C(=O)CCC(=O)N2CCCC(F)C2)ccc1Cl (some centres unmarked) [Compound 12-63]
< 0.05 µM | Cc1cc(NC(=O)[C@H](CCN)NC(=O)[C@@H]2Cc3ccccc3CN2C(=O)CCC(=O)N(C)C(C)(C)C)ccc1Cl [Compound 12-93]
< 0.05 µM | CC1(C)CCN(C(=O)CCC(=O)N2Cc3cc(F)ccc3C[C@H]2C(=O)N[C@@H](CCN)C(=O)Nc2ccc(Cl)c(Cl)c2F)CC1 [Compound 15-60]
< 0.05 µM | CC1(C)CCCN(C(=O)CCC(=O)N2Cc3cc(F)ccc3C[C@H]2C(=O)N[C@@H](CCN)C(=O)Nc2ccc(Cl)c(Cl)c2F)C1 [Compound 15-57]
0.25 to 0.5 µM | Cc1cccc(F)c1NC(=O)[C@H](CCN)NC(=O)[C@@H]1Cc2ccccc2CN1C(=O)CCC(=O)c1ccccc1 [Compound 14-5]
0.05 to 0.25 µM | N#Cc1ccc2c(c1)CN(C(=O)CCC(=O)c1ccccc1)[C@H](C(=O)N[C@@H](CCN)C(=O)Nc1ccc(Cl)c(Cl)c1F)C2 [Compound 30-1, (S)—N—((S)-4-amino-1-((3,4-dichloro-2-fluorophenyl)amino)-1-oxobutan-2-yl)-7-cyano-2-(4-oxo-4-phenylbutanoyl)-1,2,3,4-tetrahydroisoquinoline-3-carboxamide]
< 0.05 µM | NCC[C@H](NC(=O)[C@@H]1Cc2ccccc2CN1C(=O)CCC(=O)N1CCc2ccccc2C1)C(=O)Nc1ccc(Cl)c(Cl)c1F [Compound 15-8]
0.25 to 0.5 µM | CN1CN(C(=O)CCC(=O)N2Cc3ccccc3C[C@H]2C(=O)N[C@@H](CCN)C(=O)Nc2ccc(Cl)c(Cl)c2F)CC1=O [Compound 15-45]
< 0.05 µM | Cc1cc(NC(=O)[C@H](CCN)NC(=O)[C@@H]2Cc3ccccc3CN2C(=O)CCC(=O)N2CCC(C(C)(C)C)C2)ccc1Cl (some centres unmarked) [Compound 12-75]
< 0.05 µM | NCC[C@H](NC(=O)[C@@H]1Cc2ccccc2CN1C(=O)CCC(=O)N1CCCCC12CCC2)C(=O)Nc1ccc(Cl)c(Cl)c1F [Compound 15-7]
< 0.05 µM | Cc1cc(NC(=O)[C@H](CCN)NC(=O)[C@@H]2Cc3ccccc3CN2C(=O)CCC(=O)N2C[C@H](C)C[C@H](C)C2)ccc1Cl [Compound 12-39]
< 0.05 µM | Cc1cc(NC(=O)[C@H](CCN)NC(=O)[C@@H]2Cc3ccccc3CN2C(=O)CCC(=O)N2CCC(C(C)C)CC2)ccc1Cl [Compound 12-60]
> 0.5 µM | O=C(CCC(=O)N1Cc2ccccc2CC1C(=O)NC(CCN1CCC(F)CC1)C(=O)Nc1ccc2c(c1)CCC2)c1ccccc1 (racemic) [Compound 23-1, N-(1-((2,3-dihydro-1H-inden-5-yl)amino)-4-(4-fluoropiperidin-1-yl)-1-oxobutan-2-yl)-2-(4-oxo-4-phenylbutanoyl)-1,2,3,4-tetrahydroisoquinoline-3-carboxamide]
< 0.05 µM | Cc1cc(NC(=O)[C@H](CCN)NC(=O)[C@@H]2Cc3ccccc3CN2C(=O)CCC(=O)N2CCC[C@@H]2C)ccc1Cl [Compound 12-45]
< 0.05 µM | NCC[C@H](NC(=O)[C@@H]1Cc2ccccc2CN1C(=O)CCC(=O)N1CCC2(CCC2)C1)C(=O)Nc1ccc(Cl)c(Cl)c1F [Compound 15-33]

Further lines, the molecule ahead of its results:

SMILES | EC50
NCC[C@H](NC(=O)[C@@H]1Cc2ccccc2CN1C(=O)CCC(=O)c1ccccc1)C(=O)Nc1ccc2scnc2c1 [Compound 2-80] | 0.25 to 0.5 µM
NCC[C@H](NC(=O)[C@@H]1Cc2ccccc2CN1C(=O)CCC(=O)c1ccccc1)C(=O)Nc1cc(Cl)c(Cl)cn1 [Compound 4-15] | 0.25 to 0.5 µM
NCC[C@H](NC(=O)[C@@H]1Cc2ccccc2CN1C(=O)CCC(=O)c1ccccc1)C(=O)Nc1ccc(Cl)cc1F [Compound 2-9] | 0.05 to 0.25 µM
Cc1cc(NC(=O)[C@H](CC(N)=O)NC(=O)[C@@H]2Cc3ccccc3CN2C(=O)CCC(=O)c2ccccc2)ccc1Cl [Compound 3-12] | 0.05 to 0.25 µM
COc1c(NC(=O)[C@H](CCN)NC(=O)[C@@H]2Cc3ccccc3CN2C(=O)CCC(=O)c2ccccc2)ccc2c1CCC2 [Compound 2-58] | 0.05 to 0.25 µM
Cc1cc(NC(=O)[C@H](CNC(=N)N)NC(=O)[C@@H]2Cc3ccccc3CN2C(=O)CCC(=O)c2ccccc2)ccc1Cl [Compound 9-1, (S)—N—((S)-1-((4-chloro-3-methylphenyl)amino)-3-guanidino-1-oxopropan-2-yl)-2-(4-oxo-4-phenylbutanoyl)-1,2,3,4-tetrahydroisoquinoline-3-carboxamide] | < 0.05 µM
Cc1cc(NC(=O)[C@H](CC[N+](C)(C)C)NC(=O)[C@@H]2Cc3ccccc3CN2C(=O)CCC(=O)c2ccccc2)ccc1Cl [Compound 6-7] | 0.05 to 0.25 µM
Cc1cc(NC(=O)[C@H](CCN)NC(=O)[C@@H]2Cc3ccccc3CN2C(=O)CCC(=O)N2CCC(C)(C)CC2)cc(C)c1Cl [Compound 10-12] | < 0.05 µM
COc1cc(F)c(C)cc1NC(=O)[C@H](CCN)NC(=O)[C@@H]1Cc2ccccc2CN1C(=O)CCC(=O)c1ccccc1 [Compound 2-60] | 0.05 to 0.25 µM
NCC[C@H](NC(=O)[C@@H]1Cc2ccccc2CN1C(=O)CCC(=O)c1ccccc1)C(=O)Nc1cc2c(cc1Cl)CCC2 [Compound 2-73] | < 0.05 µM
NCC[C@H](NC(=O)[C@@H]1Cc2ccccc2CN1C(=O)CCC(=O)c1ccccc1)C(=O)Nc1cc(Cl)c(Cl)cc1F [Compound 2-20] | 0.05 to 0.25 µM
Cc1cccc(NC(=O)[C@H](CCCCN)NC(=O)[C@@H]2Cc3ccccc3CN2C(=O)CCC(=O)c2ccccc2)c1 [Compound 1-10] | 0.05 to 0.25 µM
Cc1cc(NC(=O)[C@@](C)(CCCCN)NC(=O)[C@@H]2Cc3ccccc3CN2C(=O)CCC(=O)c2ccccc2)ccc1Cl [Compound 4-9] | 0.05 to 0.25 µM
NCC[C@H](NC(=O)[C@@H]1Cc2ccccc2CN1C(=O)CCC(=O)c1ccccc1)C(=O)Nc1ccc2ccccc2c1 [Compound 2-28] | < 0.05 µM
Cc1cc(NC(=O)C(NC(=O)[C@@H]2Cc3ccccc3CN2C(=O)CCC(=O)c2ccccc2)C2CC[N+](C)(C)CC2)ccc1Cl (mixture of isomers) [Compound 6-6] | < 0.05 µM
NCC[C@H](NC(=O)[C@@H]1Cc2ccccc2CN1C(=O)CCC(=O)c1ccccc1)C(=O)Nc1cnc2ccccc2c1 [Compound 2-44] | < 0.05 µM
